Data taken from PMC8733726, “Dioctanoyl Ultrashort Tetrabasic β-Peptides Sensitize Multidrug-Resistant Gram-Negative Bacteria to Novobiocin and Rifampicin” (Frontiers in Microbiology, 2021).
In brackets after ≈: the same amount, converted by molar mass. Read-outs that look alike come from different tables or passages of the source.

Experiments:
[1] = system: MDR clinical isolates of A. baumannii; type: cell-based, Acinetobacter baumannii; settings: MDR clinical isolates of, 18 h
Method: (§1) The adjuvant activities of dUSTBβPs were evaluated using checkerboard assay as previously described ([Berry et al., 2019]). Overnight-grown bacterial culture diluted in saline to 0.5 McFarland turbidity was successively diluted 1:50 in MHB to achieve a final concentration of 5 × 10^5 CFU/mL for inoculation. The antibiotic and adjuvant were serially diluted 2-fold along the x-axis and y-axis, respectively, resulting in varying concentrations of both agents in each well. Subsequently, the 96-well plate was incubated with equal volumes of bacterial inoculum at 37°C for 18 h. Confirmation of turbidity was done using an EMax Plus microplate reader (Molecular Devices, United States) at a wavelength of 590 nm. Wells comprising MHB alone or in the presence of bacterial cells were used as negative or positive controls, respectively. Fractional inhibitory concentration index (FICI) is determined by adding the FICs of both antibiotic and adjuvant. The FIC of the antibiotic is calculated by dividing the MIC of the antibiotic in the presence of the adjuvant by the MIC of the antibiotic alone. Similarly, the FIC of the adjuvant is calculated by dividing the MIC of the adjuvant in the presence of the antibiotic by the MIC of the adjuvant alone. FICI ≤ 0.5, 0.5 < x ≤ 4, and >4 were deemed synergistic, additive, and antagonistic, respectively ([Meletiadis et al., 2010]).

in vitro [2] = settings: human, plasma
Method: Stability of dUSTBβP 3 was evaluated in human plasma. […] The supernatant was analyzed by HPLC-tandem mass spectrometry using selected reaction monitoring. The % compound remaining was determined by comparing peak areas at different time points to time zero. Assuming first-order kinetics, the half-life was extrapolated from the slope of the initial linear range of the logarithmic curve of compound remaining over time. Experiments were performed in duplicates, and the reference compounds include propantheline and propoxycaine.

in vitro [3] = type: cell-based; settings: human
Method: The degree of hemolysis induced by dUSTBβPs was determined by the amount of hemoglobin released from human erythrocytes upon incubation. Fresh human blood supplied by a commercial vendor was obtained from normal healthy volunteers following informed consent. The agent of interest was serially diluted in vehicle consisting of phosphate-buffered saline (PBS), saline, 5% glucose, or equivalents. The samples were incubated with gentle mixing at 37°C for 45 min and were subsequently centrifuged. The supernatant (plasma layer) was removed and centrifuged once more to completely pellet the cells. The plasma layer was diluted with Drabkin’s reagent and analyzed at a wavelength of 540 nm. Experiments were conducted in triplicates, and a calibration curve prepared by diluting blood (after addition of vehicle) was used to quantitate heme release. The vehicle or Triton X-100 were used as negative or positive controls, respectively.

P. aeruginosa PAO1 = type: cell-based, Pseudomonas aeruginosa; settings: PAO1, 18 h
Method: (§2) The in vitro antibacterial activities of dUSTBβPs were evaluated using microbroth dilution susceptibility test, in accordance with the Clinical and Laboratory Standards Institute (CLSI) guidelines ([Clinical and Laboratory Standards Institute, 2019]). Overnight-grown bacterial culture diluted in saline to 0.5 McFarland turbidity was successively diluted 1:50 in Mueller-Hinton broth (MHB) to achieve a final concentration of 5 × 10^5 colony forming units (CFU)/mL for inoculation. The agents were serially diluted 2-fold in MHB on a 96-well plate; mixed with bacterial inoculum of equal volumes, and incubated at 37°C for 18 h. Antibacterial activity was determined by the minimum inhibitory concentration (MIC), which is the lowest concentration of agent required for inhibition of visible bacterial growth in the form of turbidity. Confirmation of turbidity was done using an EMax Plus microplate reader (Molecular Devices, United States) at a wavelength of 590 nm. Wells comprising MHB alone or MHB inoculated with bacteria were used as negative or positive controls, respectively.

E. coli ATCC 25922 = type: cell-based, Escherichia coli; settings: ATCC 25922, 18 h
Method: as §2

A. baumannii ATCC 17978 = type: cell-based, Acinetobacter baumannii; settings: ATCC 17978, 18 h
Method: as §2

[4] = system: wild-type P. aeruginosa PAO1; test: microbe, parasite or virus in culture; type: cell-based, Pseudomonas aeruginosa; settings: PAO1; for MICcombo: antibiotic with dUSTBβP 3 at 8 μg/mL; for MIC: Pseudomonas aeruginosa, 18 h, antibiotic alone (Supplementary Table 7), read-out: MICantibiotic
Description: as §1, with “Overnight-grown” for “The adjuvant activities of dUSTBβPs were evaluated using checkerboard assay as previously described ([Berry et al., 2019]). Overnight-grown”, “Subsequently, the 96-well plate was incubated with equal volumes of bacterial inoculum at 37°C for 18 h.” left out, “alone.” for “alone. FICI ≤ 0.5, 0.5 < x ≤ 4, and >4 were deemed synergistic, additive, and antagonistic, respectively ([Meletiadis et al., 2010]).”

[5] = system: MDR E. cloacae clinical isolates; test: Resistance phenotype (MICs of antibiotics) of MDR clinical isolates; type: cell-based, Enterobacter cloacae; settings: Enterobacter cloacae, read-out: MIC
[6] = system: MDR P. aeruginosa clinical isolates; test: as above; type: cell-based, Pseudomonas aeruginosa; settings: Pseudomonas aeruginosa
[7] = system: wild-type A. baumannii ATCC 17978; test: Checkerboard assay; type: cell-based, Acinetobacter baumannii; settings: ATCC 17978; for MICcombo: antibiotic with dUSTBβP 3 at 8 μg/mL; for MIC: Acinetobacter baumannii, ATCC17978, 18 h, antibiotic alone (Supplementary Table 7), read-out: MICantibiotic
Description: as §1, with “Overnight-grown” for “The adjuvant activities of dUSTBβPs were evaluated using checkerboard assay as previously described ([Berry et al., 2019]). Overnight-grown”, “Subsequently, the 96-well plate was incubated with equal volumes of bacterial inoculum at 37°C for 18 h.” left out, “alone.” for “alone. FICI ≤ 0.5, 0.5 < x ≤ 4, and >4 were deemed synergistic, additive, and antagonistic, respectively ([Meletiadis et al., 2010]).”

[8] = system: wild-type E. coli ATCC 25922; test: microbe, parasite or virus in culture; type: cell-based, Escherichia coli; settings: ATCC 25922; for MICcombo: antibiotic with dUSTBβP 3 at 8 μg/mL; for MIC: Escherichia coli, ATCC25922, 18 h, antibiotic alone (Supplementary Table 7), read-out: MICantibiotic
Method: as §1

[9] = system: MDR A. baumannii clinical isolates; test: Resistance phenotype (MICs of antibiotics) of MDR clinical isolates; type: cell-based, Acinetobacter baumannii; settings: Acinetobacter baumannii
[10] = system: MDR E. coli clinical isolates; test: as above; type: cell-based, Escherichia coli; settings: Escherichia coli, read-out: MIC
[11] = system: MDR K. pneumoniae clinical isolates; test: as above; type: cell-based, Klebsiella pneumoniae; settings: Klebsiella pneumoniae, read-out: MIC

Row | MIC (P. aeruginosa PAO1) [µg/mL] | MIC (E. coli ATCC 25922) [µg/mL] | MIC (A. baumannii ATCC 17978) [µg/mL] | SMILES | hemolysis at 45 min, 1.5625 µM (in vitro [3]) [%] | hemolysis at 45 min, 3.125 µM (in vitro [3]) [%] | hemolysis at 45 min, 6.25 µM (in vitro [3]) [%] | hemolysis at 45 min, 12.5 µM (in vitro [3]) [%] | hemolysis at 45 min, 25 µM (in vitro [3]) [%] | hemolysis at 45 min, 50 µM (in vitro [3]) [%] | hemolysis at 45 min, 100 µM (in vitro [3]) [%] | hemolysis at 45 min, 200 µM (in vitro [3]) [%] | MICcombo [4] [µg/mL] | MIC [4] [µg/mL] | MIC [5]; 117029 [µg/mL] | MIC ([6]; 259-96196, read-out: MIC) [µg/mL] | MIC ([6]; 262-101856, read-out: MIC) [µg/mL] | MIC ([6]; 91433, read-out: MIC) [µg/mL] | MIC ([6]; 114228, read-out: MIC) [µg/mL] | MICcombo [7] [µg/mL] | MIC [7] [µg/mL] | other results
1 | – | – | – | CCCCCCCC(=O)N[C@@H](CCCNC(=N)N)C(=O)NCCCN(CCCNC(=O)[C@H](CCCNC(=N)N)NC(=O)CCCCCCC)CC(=O)N[C@@H](CCCNC(=N)N)C(N)=O [di(C8-Arg)-Nbap-Arg-NH2] | – | – | – | – | – | – | – | – | – | – | – | – | – | – | – | – | – | MIC of compound alone [1]: 16 µg/mL; remaining at 2 h, 1 μM (in vitro [2]): 39.5 ± 7.4%
2 | >128 | >128 | >128 | CCCCCCCC(=O)NC(CCCCN)CC(=O)NCCCN(CCCNC(=O)CC(CCCCN)NC(=O)CCCCCCC)CC(=O)NC(CCCCN)CC(N)=O (centres unmarked) [dUSTBβP 2] | 3.33 ± 0.12 | 3.28 ± 0.21 | 3.23 ± 0.11 | 3.22 ± 0.2 | 3.29 ± 0.14 | 3.24 ± 0.15 | 3.26 ± 0.1 | 3.21 ± 0.13 | – | – | – | – | – | – | – | – | – | –
3 | >128 | >128 | >128 | CCCCCCCC(=O)NC(CCCN)CC(=O)NCCCN(CCCNC(=O)CC(CCCN)NC(=O)CCCCCCC)CC(=O)NC(CCCN)CC(N)=O (centres unmarked) [dUSTBβP 1] | 3.11 ± 0.07 | 3.12 ± 0.09 | 3.13 | 3.16 ± 0.04 | 3.12 ± 0.05 | 3.17 ± 0.06 | 3.35 ± 0.17 | 2.26 ± 0.19 | – | – | – | – | – | – | – | – | – | –
4 | – | – | – | CN(C)c1ccc(O)c2c1C[C@H]1C[C@H]3[C@H](N(C)C)C(O)=C(C(N)=O)C(=O)[C@@]3(O)C(O)=C1C2=O [Minocycline] | – | – | – | – | – | – | – | – | 1 | 16 (≈ 35 µM) | 32 (≈ 69.9 µM) | 32 (≈ 69.9 µM) | 64 (≈ 140 µM) | 16 (≈ 35 µM) | 32 (≈ 69.9 µM) | 0.25 | 0.5 | MIC ([6]; 264-104354, read-out: MIC): 32 µg/mL (≈ 69.9 µM); MICcombo [8]: 0.063 µg/mL; MIC [8]: 0.5 µg/mL; MIC [9]: 0.125 µg/mL (≈ 0.273 µM); MIC ([9]; 110193, read-out: MIC): 1 µg/mL (≈ 2.19 µM); MIC ([9]; AB027, read-out: MIC): 0.25 µg/mL (≈ 0.546 µM); MIC ([9]; AB031, read-out: MIC): 0.25 µg/mL (≈ 0.546 µM); MIC ([9]; LAC-4, read-out: MIC): 4 µg/mL (≈ 8.74 µM); MIC ([10]; 94393 (mcr-1 +)): 2 µg/mL (≈ 4.37 µM); MIC ([10]; 94474 (mcr-1 +)): 64 µg/mL (≈ 140 µM); MIC [10]; 107115: 32 µg/mL (≈ 69.9 µM); MIC [11]; 113250: 2 µg/mL (≈ 4.37 µM); MIC [11]; 113254: 2 µg/mL (≈ 4.37 µM); MIC [11]; 116381: 64 µg/mL (≈ 140 µM)
5 | – | – | – | NC[C@H]1O[C@H](O[C@H]2[C@H](O)[C@@H](O[C@H]3O[C@H](CO)[C@@H](O)[C@H](N)[C@H]3O)[C@H](N)C[C@@H]2N)[C@H](N)C[C@@H]1O [Tobramycin] | – | – | – | – | – | – | – | – | 1 | 1 (≈ 2.14 µM) | 2 (≈ 4.28 µM) | 256 (≈ 548 µM) | 1020 (≈ 2190 µM) | 16 (≈ 34.2 µM) | 2 (≈ 4.28 µM) | > 1 | > 1 | MIC [5]; 118564: 1 µg/mL (≈ 2.14 µM); MIC [5]; 121187: 32 µg/mL (≈ 68.4 µM); MIC ([6]; 264-104354): 128 µg/mL (≈ 274 µM); MICcombo [8]: 1 µg/mL; MIC [8]: 2 µg/mL; MIC ([9]; LAC-4, read-out: MIC): > 4 µg/mL; MIC ([10]; 94393 (mcr-1 +)): ≤ 0.5 µg/mL; MIC ([10]; 94474 (mcr-1 +)): 32 µg/mL (≈ 68.4 µM); MIC [10]; 107115: 8 µg/mL (≈ 17.1 µM); MIC [11]; 113250: ≤ 0.5 µg/mL; MIC [11]; 113254: ≤ 0.5 µg/mL; MIC [11]; 116381: 4 µg/mL (≈ 8.56 µM)
